According to the Kinase Knowledgebase extract (Sharma et al. 2016):

Biological target: PIK3CG (human) (UniProt P48736)
Assay: Assessment of PIK3CG Kinase Activity

PIK3CG (human), sequence (P48736 whole entry, looked up): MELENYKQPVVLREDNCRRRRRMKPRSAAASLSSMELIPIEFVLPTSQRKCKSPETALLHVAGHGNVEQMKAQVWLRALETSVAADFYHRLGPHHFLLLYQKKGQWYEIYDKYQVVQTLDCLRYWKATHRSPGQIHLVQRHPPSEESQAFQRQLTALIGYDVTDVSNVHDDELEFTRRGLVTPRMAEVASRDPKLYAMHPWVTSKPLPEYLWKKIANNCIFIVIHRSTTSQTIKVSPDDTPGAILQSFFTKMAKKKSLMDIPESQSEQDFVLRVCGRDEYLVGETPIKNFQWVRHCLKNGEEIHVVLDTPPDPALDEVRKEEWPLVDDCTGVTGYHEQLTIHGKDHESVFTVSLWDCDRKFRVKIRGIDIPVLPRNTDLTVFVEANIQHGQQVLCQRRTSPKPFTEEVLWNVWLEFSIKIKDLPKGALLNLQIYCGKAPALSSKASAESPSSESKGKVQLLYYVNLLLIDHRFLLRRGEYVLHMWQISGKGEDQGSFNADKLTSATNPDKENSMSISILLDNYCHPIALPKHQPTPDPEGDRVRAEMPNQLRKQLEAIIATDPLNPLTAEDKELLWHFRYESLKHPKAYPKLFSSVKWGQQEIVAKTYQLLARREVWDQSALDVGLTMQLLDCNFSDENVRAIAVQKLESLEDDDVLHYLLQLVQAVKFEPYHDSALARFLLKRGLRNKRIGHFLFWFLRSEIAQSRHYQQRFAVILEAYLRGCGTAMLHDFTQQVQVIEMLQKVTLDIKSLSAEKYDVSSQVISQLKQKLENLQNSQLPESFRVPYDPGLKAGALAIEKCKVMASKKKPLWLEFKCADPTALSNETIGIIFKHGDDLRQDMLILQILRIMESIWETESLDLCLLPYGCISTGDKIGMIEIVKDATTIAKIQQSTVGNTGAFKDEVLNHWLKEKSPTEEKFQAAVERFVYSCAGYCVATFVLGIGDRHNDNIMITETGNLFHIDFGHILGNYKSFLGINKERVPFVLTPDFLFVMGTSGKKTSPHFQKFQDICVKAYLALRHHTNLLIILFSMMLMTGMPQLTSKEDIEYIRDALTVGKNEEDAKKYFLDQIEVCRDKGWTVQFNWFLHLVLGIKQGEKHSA

| IC50 [nM] | SMILES |
| --- | --- |
| < 800 | CCN1CCC(n2nc(-c3cccnc3)c3c2-c2sc(NC(=O)NCc4cccc(N5CCNC5=O)c4)nc2CC3)CC1 |
| < 800 | CC(=O)NC1CCN(C(=O)Nc2nc3c(s2)-c2c(c(-c4cccnc4)nn2-c2ccccc2Cl)CC3)C1 (stereo not given) |
| < 800 | CNC(=O)Nc1nc2c(s1)-c1c(c(-c3cccnc3)nn1-c1ccccc1Cl)CC2 |
| < 800 | C[C@H](NC(=O)Nc1nc2c(s1)-c1c(c(-c3ccccc3)nn1-c1ccccc1Cl)CC2)C(=O)N1CCCCC1 |
| < 800 | CC(C)(C)OC(=O)CCNC(=O)Nc1nc2c(s1)-c1c(c(-c3cncnc3)nn1-c1ccccc1Cl)CC2 |
| < 800 | NC(=O)Nc1cccc(CNC(=O)Nc2nc3c(s2)-c2c(c(-c4cccnc4)nn2-c2ccccc2Cl)CC3)c1 |
| < 800 | CC(C)(C)OC(=O)CC1(O)CCN(C(=O)Nc2nc3c(s2)-c2c(c(-c4cccnc4)nn2-c2ccccc2Cl)CC3)CC1 |
| < 800 | COc1cccc(CCNC(=O)Nc2nc3c(s2)-c2c(c(-c4cncnc4)nn2-c2ccccc2Cl)CC3)c1OC |
| < 800 | CC(C)(C)OC(=O)CCNC(=O)Nc1nc2c(s1)-c1c(c(-c3cccnc3)nn1C1CCN(C3CCCC3)CC1)CC2 |
| < 800 | CN(C)C(=O)[C@@H]1CCCC[C@H]1NC(=O)Nc1nc2c(s1)-c1c(c(-c3ccccc3)nn1-c1ccccc1Cl)CC2 |
| < 800 | COc1cc(CNC(=O)Nc2nc3c(s2)-c2c(c(-c4cncnc4)nn2-c2ccccc2Cl)CC3)cc(OC)c1 |
| < 800 | O=C(Nc1nc2c(s1)-c1c(cnn1-c1ccccc1)CC2)N1CCCCC1 |
| < 800 | COc1cccc(CNC(=O)Nc2nc3c(s2)-c2c(c(-c4cncnc4)nn2-c2ccccc2Cl)CC3)c1 |
| < 800 | O=C(NCc1cccc(N2CCNC2=O)c1)Nc1nc2c(s1)-c1c(c(-c3cccnc3)nn1-c1ccccc1Cl)CC2 |
| < 800 | CN1CCC(n2nc(-c3cncnc3)c3c2-c2sc(NC(=O)NC[C@H]4CCCN4C(=O)N4CCCC4)nc2CC3)CC1 |
| < 800 | CCc1noc(CCNC(=O)Nc2nc3c(s2)-c2c(c(C4CC4)nn2-c2ccccc2Cl)CC3)n1 |
| < 800 | O=C(NCCc1cccc(N2CCNC2=O)c1)Nc1nc2c(s1)-c1c(c(-c3cncnc3)nn1-c1ccccc1Cl)CC2 |
| < 800 | CN1CCC(n2nc(-c3cccnc3)c3c2-c2sc(NC(=O)NCCC(=O)N(C)C)nc2CC3)CC1 |
| < 800 | CC(C)(C)OC(=O)N[C@H]1CC[C@H](CNC(=O)Nc2nc3c(s2)-c2c(c(-c4cccnc4)nn2-c2ccccc2Cl)CC3)CC1 |
| < 800 | O=C(NCCn1ccnc1)Nc1nc2c(s1)-c1c(c(-c3cncnc3)nn1-c1ccccc1F)CC2 |
| < 800 | Cn1cc(CCNC(=O)Nc2nc3c(s2)-c2c(c(-c4cncnc4)nn2-c2ccccc2Cl)CC3)cn1 |
| < 800 | COc1ccc(CCNC(=O)Nc2nc3c(s2)-c2c(c(-c4cncnc4)nn2-c2ccccc2Cl)CC3)cc1OC |
| < 800 | O=C(NCCCN1CCOCC1)Nc1nc2c(s1)-c1c(c(-c3cncnc3)nn1-c1ccccc1F)CC2 |
| < 800 | O=C(NCc1cccc(OC(F)(F)F)c1)Nc1nc2c(s1)-c1c(c(-c3cncnc3)nn1-c1ccccc1Cl)CC2 |
| < 800 | C[C@@H](NC(=O)Nc1nc2c(s1)-c1c(c(-c3ccccc3)nn1-c1ccccc1Cl)CC2)C(=O)N(C)C |
| < 800 | O=C(NCCn1ccnc1)Nc1nc2c(s1)-c1c(c(-c3cncnc3)nn1-c1ccccc1Cl)CC2 |
| < 800 | CCc1cccc(CNC(=O)Nc2nc3c(s2)-c2c(c(-c4cccnc4)nn2-c2ccccc2Cl)CC3)c1 |

| IC50 [nM] | SMILES |
| --- | --- |
| < 800 | O=C(Nc1cccc(N2CCNCC2)c1)Nc1nc2c(s1)-c1c(c(-c3cncnc3)nn1-c1ccccc1F)CC2 |
| < 800 | O=C(Nc1nc2c(s1)-c1c(c(-c3cccnc3)nn1-c1ccccc1Cl)CC2)N1CCCC(c2ccccc2O)C1 (stereo not given) |
| < 800 | CN(C)C(=O)CNC(=O)Nc1nc2c(s1)-c1c(c(-c3cccnc3)nn1-c1ccccc1Cl)CC2 |
| < 800 | CCc1noc(CCNC(=O)Nc2nc3c(s2)-c2c(c(-c4ccccc4)nn2-c2cccc(Cl)c2)CC3)n1 |
| < 800 | CCc1nnc(CCNC(=O)Nc2nc3c(s2)-c2c(c(-c4cncnc4)nn2-c2ccccc2Cl)CC3)o1 |
| < 800 | Cc1c[nH]c(CCNC(=O)Nc2nc3c(s2)-c2c(c(-c4cccnc4)nn2-c2ccccc2Cl)CC3)n1 |
| < 800 | O=C(Nc1nc2c(s1)-c1c(c(-c3cccnc3)nn1-c1ccccc1Cl)CC2)N1CCCC(c2nc3ccccc3[nH]2)C1 (stereo not given) |
| < 800 | O=C(NCc1cccc(N2CCNC2=O)c1)Nc1nc2c(s1)-c1c(c(-c3cccnc3)nn1C1CCN(C3CCCC3)CC1)CC2 |
| < 800 | CC(C)(C)OC(=O)CCNC(=O)Nc1nc2c(s1)-c1c(c(Nc3ccccn3)nn1-c1ccccc1)CC2 |
| < 800 | CN(C)CC(=O)N1CC[C@H](CNC(=O)Nc2nc3c(s2)-c2c(c(-c4cncnc4)nn2-c2ccccc2Cl)CC3)C1 |
| < 800 | O=C(Nc1nc2c(s1)-c1c(c(-c3ccccc3)nn1-c1ccccc1Cl)CC2)NC1CCC(NS(=O)(=O)c2ccccc2)CC1 (stereo not given) |
| < 800 | CCN(CC)C(=O)N1CC[C@H](CNC(=O)Nc2nc3c(s2)-c2c(c(-c4cncnc4)nn2-c2ccccc2Cl)CC3)C1 |
| < 800 | CCc1cnc(CCNC(=O)Nc2nc3c(s2)-c2c(c(-c4ccccc4)nn2-c2ccccc2Cl)CC3)o1 |
| < 800 | CC(C)(C)OC(=O)N1CCC[C@@H]1CNC(=O)Nc1nc2c(s1)-c1c(c(-c3cncnc3)nn1-c1ccccc1F)CC2 |
| < 800 | CC(C)(C)OC(=O)N1CC[C@H](CNC(=O)Nc2nc3c(s2)-c2c(c(-c4cncnc4)nn2-c2ccccc2Cl)CC3)C1 |
| < 800 | CCc1nnc(CCNC(=O)Nc2nc3c(s2)-c2c(c(-c4ccccc4)nn2-c2cccc(Cl)c2)CC3)o1 |
| < 800 | Cn1cc(CNC(=O)Nc2nc3c(s2)-c2c(c(-c4cccnc4)nn2-c2ccccc2Cl)CC3)cn1 |
| < 800 | C[C@@H](C(=O)N1CCC[C@@H]1CNC(=O)Nc1nc2c(s1)-c1c(c(-c3cncnc3)nn1-c1ccccc1Cl)CC2)N(C)C(=O)OC(C)(C)C |
| < 800 | CNC(=O)Nc1nc2c(s1)-c1c(c(-c3cncnc3)nn1-c1ccccc1Cl)CC2 |
| < 800 | N[C@@H]1CC[C@@H](NC(=O)Nc2nc3c(s2)-c2c(c(-c4ccccc4)nn2-c2ccccc2Cl)CC3)C1 |
| < 800 | CC(C)c1noc(CCNC(=O)Nc2nc3c(s2)-c2c(c(-c4cncnc4)nn2-c2ccccc2Cl)CC3)n1 |
| < 800 | CC(C)c1cnc(CCNC(=O)Nc2nc3c(s2)-c2c(c(C4CC4)nn2-c2ccccc2Cl)CC3)o1 |
| < 800 | CN1CCN(C(=O)CCNC(=O)Nc2nc3c(s2)-c2c(c(-c4ccccc4)nn2-c2ccccc2Cl)CC3)CC1 |
| < 800 | CN(C)C(=O)CNC(=O)Nc1nc2c(s1)-c1c(c(-c3cccnc3)nn1C1CCN(C3CCCC3)CC1)CC2 |
| < 800 | CN1CCC(n2nc(-c3cncnc3)c3c2-c2sc(NC(=O)NC[C@H]4CCCN4C(=O)OC(C)(C)C)nc2CC3)CC1 |
| < 800 | CCc1noc(CCNC(=O)Nc2nc3c(s2)-c2c(c(-c4cncnc4)nn2-c2ccccc2Cl)CC3)n1 |
| < 800 | NC(=O)Nc1nc2c(s1)-c1c(c(-c3cccnc3)nn1-c1ccc(S(N)(=O)=O)cc1Cl)CC2 |

| IC50 [nM] | SMILES |
| --- | --- |
| < 800 | NC(=O)Nc1cccc(CNC(=O)Nc2nc3c(s2)-c2c(c(C4CC4)nn2-c2ccccc2Cl)CC3)c1 |
| < 800 | O=C(NCCNS(=O)(=O)c1cccnc1)Nc1nc2c(s1)-c1c(c(-c3ccccc3)nn1-c1ccccc1Cl)CC2 |
| < 800 | CC(C)c1nnc(CCNC(=O)Nc2nc3c(s2)-c2c(c(-c4ccccc4)nn2-c2cccc(Cl)c2)CC3)o1 |
| < 800 | CN(C)CCNC(=O)Nc1nc2c(s1)-c1c(c(-c3cccnc3)nn1-c1ccccc1Cl)CC2 |
| < 800 | CN1CCC(n2nc(-c3cccnc3)c3c2-c2sc(NC(=O)NCc4cccc(C(N)=O)c4)nc2CC3)CC1 |
| < 800 | O=C(Nc1nc2c(s1)-c1c(c(-c3cccnc3)nn1-c1ccccc1Cl)CC2)N1CCCCC1c1nc2ccccc2[nH]1 (stereo not given) |
| < 800 | CC(NC(=O)Nc1nc2c(s1)-c1c(c(-c3cccnc3)nn1-c1ccccc1Cl)CC2)c1cccc(NC(=O)OC(C)(C)C)c1 (stereo not given) |
| < 800 | CN1CCN(CCNC(=O)Nc2nc3c(s2)-c2c(c(-c4cncnc4)nn2-c2ccccc2F)CC3)CC1 |
| < 800 | CCOCCNC(=O)Nc1nc2c(s1)-c1c(c(-c3ccccc3)nn1-c1ccccc1Cl)CC2 |
| < 800 | O=C(NC[C@H]1CCNC1)Nc1nc2c(s1)-c1c(c(-c3ccccc3)nn1-c1cccc(Cl)c1)CC2 |
| < 800 | CN(C)C(=O)CNC(=O)Nc1nc2c(s1)-c1c(c(-c3ccccc3)nn1-c1ccccc1Cl)CC2 |
| < 800 | C[C@H](NC(=O)Nc1nc2c(s1)-c1c(c(-c3ccccc3)nn1-c1ccccc1Cl)CC2)C(=O)N1CCN(C)CC1 |
| < 800 | CCc1noc(CCNC(=O)Nc2nc3c(s2)-c2c(c(-c4cccnc4)nn2C2CCN(C)CC2)CC3)n1 |
| < 800 | CCN1CCC2(CCN(C(=O)Nc3nc4c(s3)-c3c(c(-c5cccnc5)nn3-c3ccccc3Cl)CC4)C2)C1 (stereo not given) |
| < 800 | CN(C(=O)OC(C)(C)C)C1CCN(C(=O)Nc2nc3c(s2)-c2c(c(-c4cccnc4)nn2-c2ccccc2Cl)CC3)C1 (stereo not given) |
| < 800 | CC(C)(C)OC(=O)N1CCC[C@@H]1CNC(=O)Nc1nc2c(s1)-c1c(c(-c3cncnc3)nn1-c1ccccc1Cl)CC2 |
| < 800 | CC(C)(C)OC(=O)CCNC(=O)Nc1nc2c(s1)-c1c(c(-c3cccnc3)nn1-c1ccccc1Cl)CC2 |
| < 800 | CCn1cnc(CCNC(=O)Nc2nc3c(s2)-c2c(c(-c4ccccc4)nn2-c2cccc(Cl)c2)CC3)c1 |
| < 800 | Cc1nn(C)cc1CNC(=O)Nc1nc2c(s1)-c1c(c(-c3cccnc3)nn1-c1ccccc1Cl)CC2 |
| < 800 | Nc1c(Br)cc(OCC2CCN(C(=O)Nc3nc4c(s3)-c3c(c(-c5cccnc5)nn3-c3ccccc3Cl)CC4)C2)cc1Br (stereo not given) |
| < 800 | CNC(=O)Nc1nc2c(s1)-c1c(c(-c3ccccc3)nn1-c1cccc(Cl)c1)CC2 |
| < 800 | Cc1nc[nH]c1-c1cccc(CNC(=O)Nc2nc3c(s2)-c2c(c(-c4cncnc4)nn2-c2ccccc2Cl)CC3)c1 |
| < 800 | Cn1cc(CCNC(=O)Nc2nc3c(s2)-c2c(c(-c4cccnc4)nn2-c2ccccc2Cl)CC3)cn1 |
| < 800 | O=C(NCCc1nc(C2CC2)no1)Nc1nc2c(s1)-c1c(c(Nc3ccccn3)nn1-c1ccccc1)CC2 |
| < 800 | CS(=O)(=O)c1cccc(CNC(=O)Nc2nc3c(s2)-c2c(c(-c4cncnc4)nn2-c2ccccc2Cl)CC3)c1 |

| SMILES | IC50 [nM] |
| --- | --- |
| O=C(NC[C@H]1CCCN1C(=O)Oc1ccccc1)Nc1nc2c(s1)-c1c(c(-c3cncnc3)nn1-c1ccccc1Cl)CC2 | < 800 |
